What was measured:
Experiment in all cases: Real-time RT-PCR in PMCs from dialysed rats
Format in all cases: in vivo, rat
Bcl-2 = conditions: peritoneal cells from rats dialysed four weeks, aliskiren 0.1 or 1 mg/Kg, FIG. 16
Protocol: (§1) The rats were exposed daily for four weeks to carrier (saline serum), 1.5% PDF, 2.3% PDF or 4.5% PDF supplemented by carrier, 0.1 mg/Kg aliskiren or 1 mg/Kg aliskiren. The data is expressed as mean±SEM, n=6 rats per group. * p<0.05, compared to the group treated with carrier in the absence of aliskiren (carrier). # p<0.05, compared to their respective groups treated with PDFs in the absence of aliskiren.
(§2) For in vivo studies, 78 female rats of the Sprague-Dawley female strain weighing 200-240 g (Charles River Breeding Laboratories) were used: fifty-four rats were assigned to the group of animals which had been administered high-glucose peritoneal dialysis solutions (PDF), which were divided into three different subgroups with eighteen rats each which were administered, respectively, three PDFs having different glucose concentrations (Fresenius Medical Car, Bad Homburg, Germany). Additionally, eighteen rats were administered a carrier (saline serum) and another six rats were used as a control group (not dialysed). […]
(§3) At the end of the experimental period (four weeks), 30 ml of a commercial PDF with 2.3% glucose (Fresenius Medical Car, Bad Homburg, Germany) was administered intraperitoneally using a 22G needle. […] Their body weight was measured at the start and end of the experimental period. […]
(§4) The blood and dialysate samples were centrifuged and stored at −20° C. The concentrations of creatinine and glucose in the serum and dialysate were measured using enzymatic methods. The peritoneal transport of solutes was calculated, on one hand, as the glucose concentration in the dialysate 2 hours after the PET relative to the initial glucose concentration in the PDF (D2/D0 glucose) and, on the other, as the dialysate/plasma creatinine concentration ratio (D2/P2 creatinine) 2 h after the PET. […]
(§5) The RNA expression was evaluated by real-time RT-PCR in PMCs. […] RNA quality and concentration was evaluated by spectrophotometry (Infinite 200, Tecan, Salzburg, Austria) using 1 μl of the RNA sample. […]

BAX = conditions: peritoneal cells from rats dialysed four weeks, aliskiren 0.1 or 1 mg/Kg, FIG. 15
Protocol: as §1, §2, §3, §4, §5

Collagen III = conditions: peritoneal cells from rats dialysed four weeks, aliskiren 0.1 or 1 mg/Kg, FIG. 18
Protocol: as §1, §2, §3, §4, §5

p53 = conditions: peritoneal cells from rats dialysed four weeks, aliskiren 0.1 or 1 mg/Kg, FIG. 14
Protocol: as §1, with “PDF supplemented by, 0.1 mg/Kg” for “PDF supplemented by carrier, 0.1 mg/Kg”, “of aliskiren. […]” for “of aliskiren.”
as §3, §4, §5

## COCCCOc1cc(C[C@@H](C[C@H](N)[C@@H](O)C[C@H](C(=O)NCC(C)(C)C(N)=O)C(C)C)C(C)C)ccc1OC [aliskiren]
Bcl-2
  RNAm expression of anti-apoptotic protein Bcl-2: increased
BAX
  RNAm expression of pro-apoptotic protein Bax: reduced
Collagen III
  RNAm expression of collagen III: increased
p53
  RNAm expression of pro-apoptotic protein p53: reduced
